Data reported in article PMC9227781, “Inhibitors of O-Acetylserine Sulfhydrylase with a Cyclopropane-Carboxylic Acid Scaffold Are Effective Colistin Adjuvants in Gram Negative Bacteria” (Pharmaceuticals, 2022).

Key:
[1] = target: T1, StOASS-A (Salmonella typhimurium, UniProt P0A1E3); assay: Fluorescence binding assay on purified recombinant StOASS-A; design: species or system S. Typhimurium; details: 20 °C, 100 mM HEPES, 5% DMSO, pH 7.0, racemic mixture, esters tested up to 100 μM
T1 construct: His-tag (with TEV site) (cleaved yes); made in house; host or cells: E. coli Rosetta (DE3)
T1 sequence (P0A1E3 whole entry): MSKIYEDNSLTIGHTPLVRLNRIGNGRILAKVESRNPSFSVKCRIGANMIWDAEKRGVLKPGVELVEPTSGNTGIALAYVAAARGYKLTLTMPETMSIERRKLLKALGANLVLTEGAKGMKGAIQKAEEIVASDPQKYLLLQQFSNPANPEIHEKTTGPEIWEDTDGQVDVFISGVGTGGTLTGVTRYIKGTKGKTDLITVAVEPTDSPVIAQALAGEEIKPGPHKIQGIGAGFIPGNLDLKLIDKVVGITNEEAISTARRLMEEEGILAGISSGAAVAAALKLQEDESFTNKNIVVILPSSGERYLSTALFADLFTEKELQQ
Procedure: (§1) The affinity of the compounds for StOASS-A and StOASS-B was determined on the purified recombinant proteins by an in vitro fluorescence binding assay. Measurements were carried out at 20 °C in a 3 mm pathlength quartz microcuvette in 100 mM HEPES, 5% DMSO (Applichem, Darmstadt, Germany), pH 7.0, using a Fluoromax-4 (Horiba Jobin-Yvon, Kyoto, Japan) spectrofluorometer. Emission spectra of solutions containing 0.2–1.0 μM StOASS, upon excitation of the pyridoxal 5′-phosphate cofactor at 412 nm, in the presence of increasing concentrations of compounds were collected; fluorescence intensities at 500 nm were plotted to compound concentration and data were fitted to a binding isotherm: I=I0+ΔI·compound/KD+compound where I is the fluorescence emission intensity at 500 nm in the presence of a given concentration of compound, I0 is the initial fluorescence emission in the absence of ligands, ΔI is the amplitude of the fluorescence emission change and KD is the dissociation constant. When the KD was lower than the protein concentration, data were fitted to the quadratic equation: I=I0+ΔI·OASS+compound+KD−OASS+compound+KD^2−4·OASS·compound/2
(§2) Data were collected in duplicate.
(§3) Esters were tested up to a concentration of 100 μM and no binding was observed.

[2] = target: T2, StOASS-B (Salmonella typhimurium, UniProt P29848); assay: Fluorescence binding assay on purified recombinant StOASS-B
T2 construct: His-tag (with TEV site) (cleaved yes); made in house; host or cells: E. coli Rosetta (DE3)
T2 sequence (P29848 1-303): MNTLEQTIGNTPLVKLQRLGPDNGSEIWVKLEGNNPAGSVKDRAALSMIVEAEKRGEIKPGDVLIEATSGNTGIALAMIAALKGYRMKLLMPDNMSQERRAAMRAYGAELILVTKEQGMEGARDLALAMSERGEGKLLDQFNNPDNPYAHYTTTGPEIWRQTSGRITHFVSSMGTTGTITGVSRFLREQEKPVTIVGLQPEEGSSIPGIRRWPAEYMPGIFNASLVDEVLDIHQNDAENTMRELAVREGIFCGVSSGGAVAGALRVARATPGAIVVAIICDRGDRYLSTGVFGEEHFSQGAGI
Procedure: as §1, §2, §3

[3] = system: MDBK cells; assay: Cytotoxicity assay (MTT) on MDBK cells; format: cell-based, bovine; details: 32, 16, 8 µg/mL; MTT test
Procedure: The cytotoxicity assay was performed using the 3-(4,5-dimethylthiazol-2-yl)-2,5-diphenyltetrazolium bromide (MTT) test, following the procedure used by Donofrio et al.. MDBK cells were cultured on microtiter tissue culture plates in DMEM medium for 24 h at 37 °C in the presence of 5% CO2. After incubation, when the cell monolayer was at confluence, an aliquot of 1 µL of UPAR415 in DMSO at different concentrations was added in each well, containing a volume of 100 µL of DMEM medium and MDBK cells, and then the plates were reincubated at the same conditions. After incubation, 10 µL of MTT at 200 mg/mL (3-(4,5-dimethylthiazol-2-yl)-2,5-diphenyltetrazolium bromide) was added to each well and incubated at 37 °C for 6 h. At the end of the incubation, 100 µL of the solubilization solution (10% SDS in 0.01 M HCl) was added to each well and then incubated overnight. The MTT compound, a yellow tetrazolium salt, is reduced by mitochondrial enzymes (succinate dehydrogenase) of metabolically active eukaryotic cells to insoluble formazan crystals. In the presence of metabolically active cells, after the addition of a detergent solution (10% SDS in […]) that allows the formazan to be released from the cells, a violet color is seen in the medium. Instead, in the presence of non-viable cells, MTT is not reduced to formazan and therefore the solution will remain yellow.
After incubation, plates were read with a spectrophotometer at 620 nm. Positive controls (PC)—without any compounds—and PCs with 1% DMSO were performed for each plate and three replicates for two independent experiments were performed for each assay.

Row | SMILES | KD (μM) OASS-A [1] | KD (μM) OASS-B ([2]; 20 °C, 100 mM HEPES, 5% DMSO, pH 7.0, racemic mixture, esters tested up to 100 μM) | Toxicity on viability of MDBK cells [3] | Kd ([1]; read-out: KD (μM) OASS-A) | Kd [2]
1 | CCOC(=O)C1(Cc2ccc(C)cc2)CC1c1cccc(N2CC(C)OC(C)C2)c1 (stereo not drawn) [Compound 12h, trans-ethyl 2-(3-(2,6-dimethylmorpholino)phenyl)-1-(4-methylbenzyl)cyclopropanecarboxylate] | No binding | No binding | lowest toxicity profile | – | –
2 | Cc1ccc(CC2(C(=O)O)CC2c2cccc(N3CC(C)OC(C)C3)c2)cc1 (stereo not drawn) [Compound 13h, trans-2-(3-(2,6-dimethylmorpholino)phenyl)-1-(4-methylbenzyl)cyclopropanecarboxylic acid] | most potent in vitro activity among the derivatives substituted with heteroaliphatic groups | – | lowest toxicity profile | 0.066 ± 0.005 µM | 3370 ± 720 nM
